What is called Tmax is the time from dosing to the highest level. As usually defined, the half-life is the time needed for the level to fall by half in the phase considered.

Data on two compounds can be found in publication PMC12409219, “Binding kinetics, bias, receptor internalization and effects on insulin secretion in vitro and in vivo of a novel GLP‐1R/GIPR dual agonist, HISHS‐2001” (Diabetes, Obesity & Metabolism, 2025).

The nature of one data set: in vivo. Also noted: species or system mouse. The following applies: sc; for Tmax / half-life: male, CD-1, mouse; for stability in the circulation: mouse. As to the method:
Ninety animals were procured from LAR. Animals were acclimatized for 1 day. On Day 0, each animal was weighed. […] Animals were injected subcutaneously at 1 mg/kg for the corresponding agonist (dose volume: 10 mL/kg) using 26½ gauge needles. At 1, 2, 4, 8, 12, 24, 48, 72, and 96 h, ~500 μL of blood was collected by retro‐orbital plexus puncture using capillary micro‐centrifuge tubes containing anticoagulant (15 μL 10% K2 EDTA). Plasma was separated from blood by centrifugation at ~3300 rpm for 10 min at 4°C. HISHS‐2001 concentrations were estimated using liquid chromatography with tandem mass spectrometry.

In data set [1] the target is T1, human GLP-1R (Homo sapiens, UniProt P43220). In words: GLP-1R binding kinetics, TR-FRET competitive kinetics with exendin(9-39)-FITC. The settings on record: calculated from K on and K off; HISHS-2001 versus tirzepatide. The method, then:
HEK293‐SNAP‐GLP‐1R cells were seeded overnight in 12‐well plates. On the day of the assay, cells were labelled with 40 nM Lumi4‐Tb (Cisbio) in complete medium for 30 min. After washing, labelled cells were preincubated for 20 min in Hanks' Balanced Salt Solution (HBSS) supplemented with 0.1% BSA and a metabolic inhibitor cocktail (10 mM NaN3, 20 mM 2‐deoxyglucose) to inhibit GLP‐1R endocytosis that would otherwise influence binding assays. Ligand binding was then detected in real time using time‐resolved Förster resonance energy transfer (TR‐FRET) using a Flexstation 3 plate reader (Molecular Devices). […] Plate reader settings included 340 nm λexcitation, 520 nm (cut‐off 495 nm) and 620 nm (cut‐off 570 nm) λemission, 400 μs delay and 1500 μs integration time. Association and dissociation rate constants were calculated using the kinetics of competitive binding algorithm in GraphPad Prism 9.0.

For data set [2], the target named is T1, human GLP-1R. In words: cAMP assay in HEK293-SNAP-GLP-1R cells (HTRF). The settings on record: 30-min stimulation, n = 4, compared to native GLP-1(7-36)NH2. In kind it is cell-based. For orientation: Changes in cAMP serve as a functional read-out for many G protein-coupled receptors.
Experimental: HEK293 cells stably expressing human GLP‐1R or human GIPR, each self‐labelling protein tag (SNAP)‐tagged at their N‐termini (Cisbio), were cultured in Dulbecco's Modified Eagle's Medium (DMEM) medium (Gibco), 10% fetal bovine serum (FBS) and 1% penicillin/streptomycin.
HEK293‐SNAP‐GLP‐1R, HEK293‐SNAP‐GIPR or GLP‐1R‐β‐arrestin 2 cells were seeded overnight in 12‐well plates. On the day of the assay, cells were resuspended and dispensed into white, 96‐well plates containing the indicated concentration of agonist prepared in serum‐free medium containing 0.1% bovine serum albumin (BSA). After a 30‐min stimulation, cAMP detection reagents (cAMP dynamic kit, Cisbio) were added, and the plate was read 60 min later using an HTRF‐compatible plate reader. Data were analysed using three‐parameter logistic fitting (GraphPad Prism 9.0) and normalised to the maximal fitted response of the reference ligand (GLP‐1 or semaglutide) for presentation purposes.

T1 sequence (P43220 24-463): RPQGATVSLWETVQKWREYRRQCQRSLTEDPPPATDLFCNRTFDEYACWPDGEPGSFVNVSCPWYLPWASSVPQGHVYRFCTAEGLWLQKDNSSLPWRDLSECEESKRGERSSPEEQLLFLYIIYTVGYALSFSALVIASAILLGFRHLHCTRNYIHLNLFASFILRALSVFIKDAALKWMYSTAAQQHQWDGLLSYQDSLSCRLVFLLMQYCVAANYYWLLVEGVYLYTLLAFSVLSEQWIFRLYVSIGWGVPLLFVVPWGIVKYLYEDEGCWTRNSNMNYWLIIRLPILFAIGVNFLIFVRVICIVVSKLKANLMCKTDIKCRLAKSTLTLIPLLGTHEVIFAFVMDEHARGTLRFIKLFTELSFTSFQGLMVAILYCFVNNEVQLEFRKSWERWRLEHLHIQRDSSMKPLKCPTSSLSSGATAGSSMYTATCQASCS

As for `CC[C@H](C)[C@H](NC(=O)[C@H](CC(C)C)NC(=O)[C@H](Cc1c[nH]c2ccccc12)NC(=O)[C@H](CCC(N)=O)NC(=O)[C@@H](NC(=O)[C@H](Cc1ccccc1)NC(=O)[C@H](C)NC(=O)[C@H](CCCCNC(=O)COCCOCCNC(=O)C(C)(C)NC(=O)CC[C@H](NC(=O)CCCCCCCCCCCCCCCCCCC(=O)O)C(=O)O)NC(=O)[C@H](CCC(N)=O)NC(=O)[C@H](C)NC(=O)[C@@H](NC(=O)[C@H](CCCCN)NC(=O)[C@H](CC(=O)O)NC(=O)[C@H](CC(C)C)NC(=O)C(C)(C)NC(=O)[C@@H](NC(=O)[C@H](CO)NC(=O)[C@H](Cc1ccc(O)cc1)NC(=O)[C@H](CC(=O)O)NC(=O)[C@H](CO)NC(=O)[C@@H](NC(=O)[C@H](Cc1ccccc1)NC(=O)[C@@H](NC(=O)CNC(=O)[C@H](CCC(=O)O)NC(=O)C(C)(C)NC(=O)[C@@H](N)Cc1ccc(O)cc1)[C@@H](C)O)[C@@H](C)O)[C@@H](C)CC)[C@@H](C)CC)C(C)C)C(=O)N[C@@H](C)C(=O)NCC(=O)NCC(=O)N1CCC[C@H]1C(=O)N[C@@H](CO)C(=O)N[C@@H](CO)C(=O)NCC(=O)N[C@@H](C)C(=O)N1CCC[C@H]1C(=O)N1CCC[C@H]1C(=O)N1CCC[C@H]1C(=O)N[C@@H](CO)C(N)=O` [HISHS-2001], in the data set “in vivo”, the Tmax came to 8 h, the half-life was 10.1 h and the “stability in the circulation” value is reported as “similar”. In addition, at human GLP-1R [1], the “calculated Kd at GLP-1R” value is “also lower”. For the same compound, the “cAMP potency (pEC50) at the GLP-1R” value on human GLP-1R [2] is listed as “significantly reduced potency”.
As for `CC[C@H](C)[C@H](NC(=O)[C@H](CC(C)C)NC(=O)[C@H](Cc1c[nH]c2ccccc12)NC(=O)[C@H](CCC(N)=O)NC(=O)[C@@H](NC(=O)[C@H](Cc1ccccc1)NC(=O)[C@H](C)NC(=O)[C@H](CCCCNC(=O)COCCOCCNC(=O)COCCOCCNC(=O)CC[C@H](NC(=O)CCCCCCCCCCCCCCCCCCC(=O)O)C(=O)O)NC(=O)[C@H](CCC(N)=O)NC(=O)[C@H](C)NC(=O)[C@@H](NC(=O)[C@H](CCCCN)NC(=O)[C@H](CC(=O)O)NC(=O)[C@H](CC(C)C)NC(=O)C(C)(C)NC(=O)[C@@H](NC(=O)[C@H](CO)NC(=O)[C@H](Cc1ccc(O)cc1)NC(=O)[C@H](CC(=O)O)NC(=O)[C@H](CO)NC(=O)[C@@H](NC(=O)[C@H](Cc1ccccc1)NC(=O)[C@@H](NC(=O)CNC(=O)[C@H](CCC(=O)O)NC(=O)C(C)(C)NC(=O)[C@@H](N)Cc1ccc(O)cc1)[C@@H](C)O)[C@@H](C)O)[C@@H](C)CC)[C@@H](C)CC)C(C)C)C(=O)N[C@@H](C)C(=O)NCC(=O)NCC(=O)N1CCC[C@H]1C(=O)N[C@@H](CO)C(=O)N[C@@H](CO)C(=O)NCC(=O)N[C@@H](C)C(=O)N1CCC[C@H]1C(=O)N1CCC[C@H]1C(=O)N1CCC[C@H]1C(=O)N[C@@H](CO)C(N)=O` [tirzepatide, reference compound], in the data set “in vivo”, the Tmax stood at 8 h, the half-life is 8.78 h and the “stability in the circulation” value is on record as “similar”.
